A melting point compilation (Tetko et al.; mined from patent text by program, amines drawn as free bases though some values may be those of a salt)
Starred links: 1 amine or outer side, 2 acyl side, 3 side chain; linkers in the order of their positions; H or OH if unused. Residues, ends and D or L forms follow the SMILES beside them. *: point of attachment. βAsp = O=C(O)[CH](CC(=O)[*:2])N[*:1]; Bz = O=C(c1ccccc1)*

| SMILES | melting point [°C] |
| --- | --- |
| CCCc1c(OCC(C)CC(=O)NC(C)CCCc2cccnc2)ccc(C(C)=O)c1O (stereo not drawn) | 77 to 83 |
| Nc1cc(C(O)=S)cc(SCc2ccccc2)c1-c1ccccc1 | 170 to 172 |
| CCOC(=O)C(OCc1ccc(-c2ccc(Cl)cc2)cc1)c1ccccc1 (stereo not drawn) | 50 to 51 |
| O=Cc1ccc(OCCNc2nc3ccccc3o2)cc1 | 103 to 106 |
| CC(C)(C)OC(=O)N1CCN(c2nsnc2Cl)CC1 | 83 to 86 |
| CS(=O)(=O)c1ccc2c3c(cccc13)C(=O)N2 | 242 to 243 |
| COc1cc(/C=C2/C(=O)N(C)C(=O)/C2=C/c2ccccc2)cc(OC)c1OC | 131 to 133 |
| C#Cc1ccc2c(c1-c1cn(C3CC(O)C(COC(c4ccccc4)(c4ccc(OC)cc4)c4ccc(OC)cc4)O3)c(=O)[nH]c1=O)Cc1ccccc1-2 (stereo not drawn) | 160 to 161 |
| COc1ccc(-c2[nH]nc3c2C(=O)c2c(NC(=O)CN4CCN(CCN)CC4)cccc2-3)cc1 | > 300 |
| CCOc1ccc(OC)c2c1CCC([N+](=O)[O-])=C2 | 90 to 92 |
| COc1ccc(OCc2ccc(C(=O)c3ccccc3)cc2)cc1OC | 74 to 75 |
| C[C@H]1C(=O)OCN1C(=O)OC(C)(C)C | 64 to 67 |
| CC1=C(CCOC(=O)C(C)(C)C)C2=C(O)N(I)CN(CCOC(=O)C(C)(C)C)C2=N1 | 155 |
| COc1ccc(-c2c(Cl)c(CCl)nc3sc4c(c23)CCN(Cc2ccccc2)C4)cc1 | 194 to 195 |
| CC(SC#N)C(=O)N(CC(=O)OC(C)(C)C)C1CCCC1 (stereo not drawn) | 76 to 78 |
| Cc1cccc(C)c1NC(=O)CCS(=O)(=O)c1cc(C(C)(C)C)c(O)c(C(C)(C)C)c1 | 218 to 219 |
| CS(=O)(=O)c1ccc(-c2cnn(CC(F)(F)F)c(=O)c2NCC2CC2)cc1 | 145 to 146 |
| CSc1nc(O)nn1-c1ccccc1 | 176 to 177 |
| COC(=O)Nc1nc2ccc(Sc3ccccc3)cn2c1CN1CCOCC1 | 158 to 182 |
| N#Cc1nn(-c2ccccc2)c(OC(F)F)c1CO | 71 to 72 |
| Cc1c(C(=O)Nc2ccc(N3CCN(CCO)CC3)c(C#N)c2)cnn1-c1ccc(F)cc1 | 179 to 180 |
| COc1ccc(OCCC2CCN(c3cc(Cl)nnc3Cl)CC2)cc1 | 119 to 120 |
| CC(C)COC(=O)CCC1NCC(=O)N1 (stereo not drawn) | 50 to 52 |
| CC1(C)C(=O)N([Si](C)(C)C)C(=O)N1[Si](C)(C)C | 46 to 49 |
| O=C(CCN1CCOCC1)Nc1ccc2c(=O)c3ccc(NC(=O)CCN4CCOCC4)cc3[nH]c2c1 | > 320 |

| SMILES | melting point [°C] |
| --- | --- |
| C=C(C)c1c(OC)cc(Cc2cnc(N)nc2N)cc1OC | 228 to 229 |
| CC(C)OC(=S)SSCCSSC(=S)OC(C)C | 66 |
| NC(=O)CCC1CN(c2ccc(C3=CCN(C=O)CC3)c(F)c2)C(=O)O1 (stereo not drawn) | 148 to 151 |
| CN1CCN(c2cccc3ccc(Nc4nc(Cc5ccccc5)cs4)cc23)CC1 | 157 to 160 |
| O=C(O)c1ccc(-c2ncn(-c3ccc(OC(F)(F)C(F)(F)F)cc3)n2)cc1 | 225 |
| CCOC=C(C(C)=O)C(=O)NCc1ccc(Cl)cc1 | 103 to 105 |
| COc1ccccc1N=C(C)CC(=O)C(F)(F)F | 40 |
| O=c1nc(-c2cccc(CS(=O)Cc3ccccc3)n2)sc2ccccc12 (stereo not drawn) | 187 to 189 |
| CCCCCCCN(Cc1ccc(C(C)(C)C)cc1)C(Nc1c(C)cc(C)cc1C)=C1C(=O)COC1=O | 141 to 143 |
| CCC1(CCSC(C)=O)C(=O)N2CCCC(C(=O)O)N2C1=O (stereo not drawn) | 110 to 111 |
| O=C(O)c1sc(-c2ccc(Cl)cc2)nc1C(F)(F)F | 235 to 250 |
| O=C1CCCc2cc(OCc3cncnc3)ccc21 | 146 to 147 |
| Cn1nnc2ccc(C(O)c3ccccc3)cc21 (stereo not drawn) | 145 |
| CCOC(=O)C(=O)Nc1cc(Br)c2ccccc2c1NC(=O)C(=O)OCC | 164 |
| CC(CCCc1ccccc1)c1cc2c(cc1O)C1C(=O)CCCC1C(C)(C)O2 (stereo not drawn) | 108 to 115 |
| N#Cc1c(N2CCCCC2)cc(-c2ccc3ccccc3c2)c2c1-c1ccccc1C2=O | 166 to 167 |
| CCCCCCCCCN(C[C@H]1CC[C@H](CN(CCCCCCCCC)C(=O)Nc2ccc(N(C)C)cc2)CC1)C(=O)Nc1ccc(N(C)C)cc1 | 96 to 98 |
| Cc1ccc(C(C)C)c2oc(SCCN3CCN(CC(=O)Nc4c(C(C)C)cccc4C(C)C)CC3)nc12 | 133 to 134 |
| [N-]=[N+]=NCC1Cc2c(ccc3c2CCC(=O)N3)O1 (stereo not drawn) | 157 to 158 |
| Cn1ncc(C(=O)N2CC(F)C2)c1C(=O)Nc1ccn2nc(-c3cccnc3)nc2c1 | 247 to 249 |
| CN1CCC(=O)C(c2cccc(C(F)(F)F)c2)C1 (stereo not drawn) | 64 to 65 |
| CCn1cc(C(=O)O)c(=O)c2cc(F)c(N3CCN(C)C(COc4ccccc4)C3)cc21 (stereo not drawn) | 202 to 204 |
| COc1cccc(C2C=C(C)NC3=C2C(=O)CCC3)c1 (stereo not drawn) | 164 to 167 |
| COc1ccc(-c2ccc(C(=O)NCCOc3ccc(CC(Oc4ccc(C(C)C)cc4)C(=O)O)cc3)cc2)cc1 (stereo not drawn) | 159 to 160 |
| C[Si](C)(C)Oc1nc(-c2ccccc2)nc2c1CC(S(=O)(=O)c1ccccc1)CC2 (stereo not drawn) | > 250 |

| SMILES | melting point [°C] |
| --- | --- |
| CN1CCN(C)C1=Nc1ccccc1CN1CCOCC1 | 56 to 58 |
| Cc1ccc(CCOc2ccc(CC3SC(=O)NC3=O)cc2)nc1 (stereo not drawn) | 192 to 193 |
| CC(=O)OCCc1c([N+](=O)[O-])cc(OCc2ccccc2)c2ccccc12 | 82 to 87 |
| CCCCCCCCCCCCc1nnn(C(C)C(=O)Nc2c(OC)cc(OC)cc2OC)n1 (stereo not drawn) | 155 to 157 |
| COc1cccc(-c2nc3n(n2)CCc2cc(OC)ccc2-3)c1 | 101 to 103 |
| CC1(C)COc2cc3c(cc21)C1(CO3)C(=O)N(Cc2ccc(C(F)(F)F)o2)c2ccccc21 (stereo not drawn) | 155 to 160 |
| Cc1c2c(nc3ccccc13)CCN(C(N)=S)CC2 | 218 |
| CCC1(CC)C(=O)N(C(C)(C)C)CC(C)(C)N1OC(C(=O)O)c1ccccc1 (stereo not drawn) | 125 to 133 |
| COCc1csc2c(C(=O)O)c(=O)c3cc4c(cc3n12)OCO4 | 265 |
| CCCC1=C(C)C(=O)c2oc(Cc3ccc(OC)cc3)c(C)c2C1=O | 114 |
| Cc1c(NC(=O)CCCCc2ccc(F)cc2)ccc2cc(CN3CCCC3)cnc12 | 137 to 138 |
| COC(=O)C=Cc1ccc(C=O)cc1 | 82 to 84 |
| CCOc1cccc(C(S)C(=O)O)c1 (stereo not drawn) | 105 to 107 |
| CN(C)Cc1cc([N+](=O)[O-])cc2c(Nc3cccc(Br)c3)c(C#N)cnc12 | 223 to 226 |
| COc1cc2c(c(Cl)c1Cl)CCCC2 | 67 to 68.5 |
| O=CN1CCN(c2ccnc(Oc3ccccc3)n2)CC1 | 149 to 151 |
| COc1ccc2c(c1)C(=O)c1c-2n(CCCBr)c(=O)c2cc([N+](=O)[O-])ccc12 | 282 to 284 |
| CC(=O)C(=NNc1ccc(Cl)cc1)Sc1ccc(Cl)cc1 | 164 to 167 |
| COC(=O)c1ncn(C2OC(COC(C)=O)C(OC(C)=O)C2OC(C)=O)n1 (stereo not drawn) | 107 to 109 |
| Cc1nc(N2C[C@@H](Cc3ccccc3)NC2=O)sc1C(=O)NCc1ccccc1 | 212 to 214 |
| Cc1c(Cl)cccc1Nc1ncccc1C(=O)OC1OC(=O)c2ccccc21 (stereo not drawn) | 178 to 180 |
| CCOC(=O)c1cccc(-c2nc(=O)c3ccccc3s2)n1 | 170 to 172 |
| CCOC(=O)c1c(C(F)(F)F)nc(C(F)F)c(C(=O)OC)c1N(C)C1CC1 | 37 to 40 |
| Cc1cc(C)c(C2C(=O)N(N(C)C)C3(CCN(N(C)C)CC3)C2=O)c(C)c1 (stereo not drawn) | 80 to 85 |
| CCn1cc(C(c2ccc(Cl)cc2Cl)n2cncn2)c2cc(Br)ccc21 (stereo not drawn) | 124 to 126 |

| SMILES | melting point [°C] |
| --- | --- |
| Fc1cc(CC2(Cc3ccncc3)c3cccnc3-c3ncccc32)ccn1 | 228 to 230 |
| CC1(C)C(C(=O)NC(=O)CN)C1(C)C | 176 |
| O=CC(CC(=O)O)NC(=O)C1CCCN2C(=O)CCC(NC(=O)CCc3ccccc3)C(=O)N12 (stereo not drawn) | 96 to 97 |
| COc1ccc(N2C(=O)N(c3ccccc3)c3nc(Nc4ccccc4)ncc3C2C(C)C)cc1 (stereo not drawn) | 229 to 235 |
| CCOC(=O)c1[nH]c(CC)nc1C1CC1 | 154 to 155 |
| COc1ccc(C(=O)Nc2ccc(F)c(F)c2)cc1NCc1cccc(O)c1 | 160 to 163 |
| Cc1c(C(F)(F)C(F)(F)C(F)(F)F)ncn1-c1ncc(C(F)(F)F)cc1Cl | 62.5 |
| CC(NC(=O)CC(NC(=O)c1ccccc1)C(=O)O)C(=O)N1CCCC1C(=O)O (stereo not drawn) ({Bz-βAsp}-Ala-Pro-OH; configuration not given here) | 110 |
| COc1cc(C=Cc2nc3c(c(=O)n(C)c(=O)n3C)n2C)cc(OC)c1OCc1ccccc1 | 190 to 195 |
| O=C(Nc1cc2ncc(CN3CCCC3)cc2cc1F)c1ccc(-c2ccc(F)cc2)cc1F | 200 to 202 |
| O=C1COC(=O)N1C(c1ccccc1)(c1ccccc1)c1ccccc1 | 216 to 218 |
| COc1ccc(-n2nc(C(F)F)cc2-c2ccc(S(C)(=O)=O)cc2)cc1F | 185 to 186 |
| CCOC(=O)c1cnn2c1nc(N1CCN(C)CC1)c1cnc3c(cnn3CC)c12 | 111 to 113 |
| CCn1c(SCc2ccccn2)nc2ccccc2c1=O | 110 to 111 |
| CNC1=NS(=O)(=O)N=C1NCCSCc1ccc(CN(C)C)o1 | 92 to 96 |
| CC(C)c1nc2ccccn2c(=O)c1-c1ccc(Cl)cc1 | 98 to 100 |
| CCCn1nnn(-c2cc(Cl)c(Cl)cc2Cl)c1=O | 89 to 90 |
| NC(=O)c1cc(-c2cccc3cc(Cc4cc(F)cc(Cl)c4)sc23)ccc1F | 169 to 170 |
| CC1=C(C)C(N)(Cc2ccccc2)C(C)C2=C1OCC2c1ccc(C)cc1 (stereo not drawn) | 99 to 100 |
| Cc1ccc(C#Cc2ccc(NC(=O)OC(C)(C)C)c([N+](=O)[O-])c2)cc1 | 164 to 165 |
| Clc1ccc(-c2cn3c(n2)CCCC3)c(Cl)c1 | 134 to 136 |
| CCC(C)(C)C1CC=C(C(=O)O)CC1 (stereo not drawn) | 123 to 125 |
| CCn1c(=O)c2c(nc(/C=C/c3ccc(OC)c(OC(C)=O)c3)n2C)n(CC)c1=O | 241 to 242 |
